In patent publication US12351574B2, “Selective ligands for modulation of GIRK channels” (Northeastern University, priority 2018, dated 2025):

How the values were obtained:
[1] = molecular target: T1, GIRK1/4(T-V) (Homo sapiens, UniProt P48544+P48549, T94V); experiment: TEVC in Xenopus oocytes, single mutant GIRK1/4(T-V); format: cell-based; conditions: GIRK1/4(T-V) single mutant
T1 construct: expressed in transfected cells; host or cells: Xenopus laevis oocytes (cRNA injection)
T1 sequence (P48549 1-501): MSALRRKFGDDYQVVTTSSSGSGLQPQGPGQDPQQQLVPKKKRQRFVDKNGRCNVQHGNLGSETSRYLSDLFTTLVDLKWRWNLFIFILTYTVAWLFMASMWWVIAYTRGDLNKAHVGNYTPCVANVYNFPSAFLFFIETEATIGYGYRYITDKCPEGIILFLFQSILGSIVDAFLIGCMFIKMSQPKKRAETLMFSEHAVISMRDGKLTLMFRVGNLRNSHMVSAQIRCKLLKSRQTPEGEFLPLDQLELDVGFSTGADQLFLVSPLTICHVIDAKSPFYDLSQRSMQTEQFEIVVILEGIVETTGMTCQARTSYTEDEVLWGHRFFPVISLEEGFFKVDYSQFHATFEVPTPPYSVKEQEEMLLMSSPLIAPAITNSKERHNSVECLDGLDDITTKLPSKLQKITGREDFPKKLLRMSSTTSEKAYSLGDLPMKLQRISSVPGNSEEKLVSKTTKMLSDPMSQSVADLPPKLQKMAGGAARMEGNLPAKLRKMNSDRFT
T1 sequence (P48544 1-419 T94V): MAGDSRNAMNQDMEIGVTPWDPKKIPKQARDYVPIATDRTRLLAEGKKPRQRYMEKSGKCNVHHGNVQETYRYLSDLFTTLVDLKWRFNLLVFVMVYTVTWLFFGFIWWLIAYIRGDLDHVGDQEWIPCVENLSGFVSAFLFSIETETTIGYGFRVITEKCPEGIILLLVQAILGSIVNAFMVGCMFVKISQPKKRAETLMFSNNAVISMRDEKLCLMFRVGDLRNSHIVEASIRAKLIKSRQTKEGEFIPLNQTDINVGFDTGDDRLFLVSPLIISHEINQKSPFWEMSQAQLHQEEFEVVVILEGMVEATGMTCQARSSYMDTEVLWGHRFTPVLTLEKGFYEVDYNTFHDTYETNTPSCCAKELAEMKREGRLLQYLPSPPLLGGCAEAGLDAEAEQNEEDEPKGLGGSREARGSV
From the text: Molecular biology: For Xenopus oocyte expression, human GIRK1 and human GIRK4 cDNAs were subcloned into pGEMHE. For mammalian expression, human GIRK1 and human GIRK4 cDNAs were subcloned into pcDNA3 and pcDNA3.1/V5-His B, respectively (Invitrogen). Mouse GIRK2 cDNA was subcloned in the dual-function vector, pXoom. Point mutations were introduced using a standard Pfu-based mutagenesis technique according to the QuikChange protocol (Agilent). Mutations were verified by sequencing.
Electrophysiology of oocytes: Whole-oocyte currents were measured by conventional two-electrode voltage clamp (TEVC) with a GeneClamp 500 amplifier (Axon Instruments). Agarose cushion microelectrodes were filled with 1.5% (w/v) agarose in 3 M KCl and were used with resistances between 0.1 and 1.5 megaohms. […] Barium-sensitive basal currents from both groups, 1) Vehicle, 2) single concentration at 10 μM and 3) multiple concentrations of ML297 or GAT compounds in the presence of HK solution, were assessed at −80 mV using TEVC. Barium-sensitive currents were normalized to average basal current in the vehicle solutions. The HK solution contained the following: 96 mM KCl, 1 mM NaCl, 1 mM MgCl2, 5 mM KOH/HEPES, pH 7.4. The barium solution consisted of HK+10 mM BaCl2. Five to ten oocytes from the same batch (same frog) were recorded for each group, and the experiments were repeated in at least four batches. Data acquisition and analysis were carried out using pClamp9 (Molecular Devices) and OriginPro (Microcal) software.
To test these computational predictions, the inventors mutated each or both of the two M1 key wild-type GIRK4 subunit residues to the corresponding GIRK2 residues (GIRK4-V92I, GIRK4-T94V, GIRK4-V92I/T94V or GIRK4-dm) and vice-versa the GIRK2 residues to the corresponding GIRK4 ones (GIRK2-I97V, GIRK2-V99T, GIRK2-I97V/V99T or GIRK2-dm) (FIG. 35). […]

[2] = molecular target: T2, GIRK1/2 (UniProt P48542+P48549); experiment: thallium flux assay, cells expressing GIRK1/2; format: cell-based; set-up: expressed in transfected cells
T2 sequence (P48549 1-501): T1 sequence (P48549 1-501)
T2 sequence (P48542 1-425): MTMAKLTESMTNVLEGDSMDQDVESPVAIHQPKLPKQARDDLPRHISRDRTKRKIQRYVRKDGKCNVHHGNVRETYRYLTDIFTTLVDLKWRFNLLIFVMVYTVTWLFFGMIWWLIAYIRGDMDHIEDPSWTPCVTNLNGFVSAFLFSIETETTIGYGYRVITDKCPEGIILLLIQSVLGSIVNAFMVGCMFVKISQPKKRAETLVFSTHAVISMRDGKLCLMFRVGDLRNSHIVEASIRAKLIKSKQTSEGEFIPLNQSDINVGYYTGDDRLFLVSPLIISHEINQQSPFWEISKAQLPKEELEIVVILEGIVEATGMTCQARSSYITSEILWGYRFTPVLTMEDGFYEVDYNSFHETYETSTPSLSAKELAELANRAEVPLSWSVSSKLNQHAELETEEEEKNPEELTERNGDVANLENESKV
From the text: Previous studies have utilized the thallium flux Assay to test the effects of ML297 and related compounds in cells coexpressing GIRK1/2 and GIRK1/4. In order to fully investigate the selective activation of GAT compounds, the inventors also utilized this assay. […] To determine the differences between the thallium flux and TEVC assays, the inventors computationally tested whether the binding of selective compounds could affect the selectivity of the pore area. The Cα RMSF of the region between the M1 and M2 helices of the channel were calculated during the MD simulation with or without ML297 and the selective GAT compounds in the GIRK2/2^FD and GIRK4/4^FD systems (FIGS. 60A-60B). […] To further test this idea, the inventors compared the 10 μM GAT1508-induced thallium and potassium currents in oocytes expressing GIRK1/2 and GIRK1/4 by TEVC recording (FIG. 61B). […] In an effort to enhance the current, the TEVC recording was performed at a holding potential of −100 mV.

Q: What does the source list for `Cc1cc(NC(=O)Nc2ccc(Br)s2)n(-c2ccccc2)n1` [GAT1508, 1-(5-bromothiophen-2-yl)-3-(3-methyl-1-phenyl-1H-pyrazol-5-yl)urea]?
A: EC50 [1]: 500 ± 470 nM; EMAX [1]: 1.12±0.03; Emax ([1]; read-out: EMAX, % of the control GIRK1/2): 7%

Q: Which EC50 [2] does the source give for `Cc1cc(NC(=O)Nc2ccc(F)c(F)c2)n(-c2ccccc2)n1` [ML297, reference compound] here?
A: ~689 nM
